{"source": "patent US11781160B2", "about": "“Methods for the production of methacrylates” (priority 2018, dated 2023)", "key": {"[1]": {"test_system": "E. coli MG1655 acrR(V29G)", "assay": "Growth in MSX medium with 20% (v/v) BMA, single mutation strain", "assay_type": "cell-based, Escherichia coli", "settings": "20% (v/v) BMA added immediately after inoculation"}, "[2]": {"test_system": "E. coli BW25113 ΔsoxR", "assay": "Growth in MSX medium with 20% (v/v) BMA, knock-out strain", "assay_type": "cell-based, Escherichia coli", "settings": "20% (v/v) BMA added immediately after inoculation"}, "[3]": {"test_system": "E. coli BW25113 isolate 8-rob(R156H) rpoB(T1037P) torY(A87T) acrR(49Yfs)", "assay": "Growth kinetics of isolated strain 8 with 20% v/v BMA"}, "[4]": {"test_system": "E. coli MG1655 soxR(R20H)", "assay": "Growth in MSX medium with 20% (v/v) BMA, single mutant", "assay_type": "cell-based, Escherichia coli", "settings": "20% (v/v) BMA added immediately after inoculation"}, "[5]": {"test_system": "E. coli BW25113 isolate 23-soxR(R20L) rpoC(r1075C) 2133236( T> A) 3915915(T > G) acrR(indels)", "assay": "Growth kinetics of isolated strain 23 with 20% v/v BMA"}, "[6]": {"test_system": "gene transcription in strain 2", "assay": "Transcriptome analysis with added BMA, strain 2", "procedure": "Transcriptome analysis was carried out to characterize transcriptional activity in mutant microorganisms using standard methods.\nSample Preparation • 1) Streak strains onto fresh MSX agar (15 g/L) plates directly from the cryostocks and incubate overnight at 37° C. • 2) Isolate single colonies and inoculate pre-cultures in MSX, using 50 ml shake flasks. Incubate overnight at 37° C. and 250 rpm. • 3) Inoculate cultures in MSX to an initial OD600 of 0.05, using 250 mL pyrex shake flasks with 24/29 neck join. Incubate at 37° C. and 250 rpm. Do 4 biological replicates (3 replicates for sequencing plus one backup)—4 flasks per strain. • 4) Seal shake flasks with sterile Suba seals. To monitor OD, take samples using a sterile syringe and needle after first swabbing the Suba seals with 70% ethanol. Monitor OD. • 5) When OD reaches 0.3, collect first sample for RNA extraction (“before” sample) into a pre-chilled falcon. Keep samples on ice. • 6) Immediately after, add 20% (v/v) BMA. Re-incubate cultures. • 7) Quickly process the samples according to the RNeasy kit protocol, until step 6 of protocol 1. Always keep samples on ice and store it at −80° C. until further use, if possible, flash freeze in liquid nitrogen it before storing. • 8) One hour after the first sample collection/BMA addition, collect the second sample for RNA extraction (“after” sample). Proceed as explained before. • 9) Continue to monitor the OD until the cultures reach 24 h. • To summarise, each strain tested will have 6 samples to send for sequencing, 3 collected right before the addition and 3 collected one hour after, plus 1 “back-up” for before and after, in case something goes wrong during extraction (8 samples total). Besides the WT strain with the addition of BMA, samples were also collected from a WT culture with no BMA, one hour after reaching OD of 0.3, as a control.\nTranscription was compared for a double mutant and the wild-type in the presence and absence of BMA relative to the level in the wild type in the absence of BMA. For the avoidance of doubt the level in the table is the ratio of the level in the strain under the BMA exposure relative to the level in the wild type in the absence of added BMA."}, "[7]": {"test_system": "E. coli BW25113 isolate 20-marR(V84G) rpoC(R1075C) ompR(R15S) acrR(indels)", "assay": "Growth kinetics of isolated strain 20 with 20% v/v BMA"}}}
{"smiles": "C=C(C)C(=O)OCCCC", "note": "[BMA, butyl 2-methylprop-2-enoate]", "values": [{"measurement": "Growth in the presence of BMA", "setting": "[1]", "value": "able to grow"}, {"measurement": "Growth in the presence of BMA", "setting": "[2]", "value": "unable to grow"}, {"measurement": "Growth rate", "setting": "[3]", "value": "0.712 ± 0.015", "unit": "h⁻¹"}, {"measurement": "Lag time", "setting": "[3]", "value": 5, "unit": "h"}, {"measurement": "Max cell concentration", "setting": "[3]", "value": "0.435 ± 0.010", "unit": "g/L"}, {"measurement": "Growth in the presence of BMA", "setting": "[4]", "value": "able to grow"}, {"measurement": "Growth rate", "setting": "[5]", "value": "0.722 ± 0.019", "unit": "h⁻¹"}, {"measurement": "Lag time", "setting": "[5]", "value": 4, "unit": "h"}, {"measurement": "Max cell concentration", "setting": "[5]", "value": "0.529 ± 0.023", "unit": "g/L"}, {"measurement": "IdhA transcription level relative to wild type without BMA", "setting": "[6]", "value": 11.32}, {"measurement": "acrA transcription level relative to wild type without BMA", "setting": "[6]", "value": 7.33}, {"measurement": "acrB transcription level relative to wild type without BMA", "setting": "[6]", "value": 6.68}, {"measurement": "adiY transcription level relative to wild type without BMA", "setting": "[6]", "value": 5.37}, {"measurement": "ariR transcription level relative to wild type without BMA", "setting": "[6]", "value": 35.30}, {"measurement": "asr transcription level relative to wild type without BMA", "setting": "[6]", "value": 95.27}, {"measurement": "bssR transcription level relative to wild type without BMA", "setting": "[6]", "value": 15.30}, {"measurement": "ibpA transcription level relative to wild type without BMA", "setting": "[6]", "value": 20.83}, {"measurement": "ibpB transcription level relative to wild type without BMA", "setting": "[6]", "value": 84.03}, {"measurement": "narG transcription level relative to wild type without BMA", "setting": "[6]", "value": 11.38}, {"measurement": "nirB transcription level relative to wild type without BMA", "setting": "[6]", "value": 8.77}, {"measurement": "nirD transcription level relative to wild type without BMA", "setting": "[6]", "value": 4.33}, {"measurement": "pspA transcription level relative to wild type without BMA", "setting": "[6]", "value": 15.40}, {"measurement": "pspB transcription level relative to wild type without BMA", "setting": "[6]", "value": 11.46}, {"measurement": "pspD transcription level relative to wild type without BMA", "setting": "[6]", "value": 11.22}, {"measurement": "pspc transcription level relative to wild type without BMA", "setting": "[6]", "value": 11.88}, {"measurement": "raiA transcription level relative to wild type without BMA", "setting": "[6]", "value": 14.09}, {"measurement": "rmf transcription level relative to wild type without BMA", "setting": "[6]", "value": 7.05}, {"measurement": "soxS transcription level relative to wild type without BMA", "setting": "[6]", "value": 4.10}, {"measurement": "spy transcription level relative to wild type without BMA", "setting": "[6]", "value": 22.92}, {"measurement": "ybfA transcription level relative to wild type without BMA", "setting": "[6]", "value": 18.45}, {"measurement": "ybhG transcription level relative to wild type without BMA", "setting": "[6]", "value": 6.87}, {"measurement": "ybiH transcription level relative to wild type without BMA", "setting": "[6]", "value": 8.65}, {"measurement": "ydgU transcription level relative to wild type without BMA", "setting": "[6]", "value": 31.80}, {"measurement": "yhjx transcription level relative to wild type without BMA", "setting": "[6]", "value": 7.35}, {"measurement": "yibT transcription level relative to wild type without BMA", "setting": "[6]", "value": 36.87}, {"measurement": "ymgA transcription level relative to wild type without BMA", "setting": "[6]", "value": 35.59}, {"measurement": "ymgC transcription level relative to wild type without BMA", "setting": "[6]", "value": 42.36}, {"measurement": "ynfM transcription level relative to wild type without BMA", "setting": "[6]", "value": 14.42}, {"measurement": "yohk transcription level relative to wild type without BMA", "setting": "[6]", "value": 8.45}, {"measurement": "Growth rate", "setting": "[7]", "value": "0.719 ± 0.041", "unit": "h⁻¹"}, {"measurement": "Lag time", "setting": "[7]", "value": 5, "unit": "h"}, {"measurement": "Max cell concentration", "setting": "[7]", "value": "0.589 ± 0.012", "unit": "g/L"}]}
